Key:
[1] = tested on: Rd 13 Scrambled (S) (DNA, aptamer) GCTGTGTGCGTGAGTGGAGTGCGCGCGAGAGTGAGTGCGGTGAGAGATTCGGTGTGCGTGTCGTGATGAATGCGACCGG; assay: circular dichroism; details: 0.2 mM Mg2+; 20 mM Tris pH 7.4; 10 μM aptamer, 100 μM posaconazole; no CD change
[2] = tested on: Rd 13 (DNA, aptamer) CGGGGGGAGGCGGAGGGAGGACTGGGGCTTCATTGACGTTCTTCACAGTAGGGGTAAGGGCTTAGGTGGTTGGTGCCTG; assay: competitive fluorescence anisotropy; details: 140 mM Na+, 2 mM K+, 5 mM Mg2+, 2 mM Ca2+, 20 mM Tris pH 7.4, PosBD displaced, 1,000 pmol drug in 125 μl
[3] = tested on: amino-Rd 13 (DNA, aptamer) CGGGGGGAGGCGGAGGGAGGACTGGGGCTTCATTGACGTTCTTCACAGTAGGGGTAAGGGCTTAGGTGGTTGGTGCCTG; assay: graphene field effect transistor, Dirac voltage shift; details: 140 mM Na+, 2 mM K+, 5 mM Mg2+, 2 mM Ca2+; SELEX buffer (20 mM Tris pH 7.4, 0.05% Tween); Langmuir-Hill fit; also printed as 1.8 ± 0.5 μg/ml

binding [1]	binding ([2]; greatest displacement)	dissociation constant [3] [µM]	binding ([2]; less than posaconazole)	Structure (SMILES)
no	yes	2.6 ± 0.7		CC[C@@H]([C@H](C)O)n1ncn(-c2ccc(N3CCN(c4ccc(OC[C@@H]5CO[C@@](Cn6cncn6)(c6ccc(F)cc6F)C5)cc4)CC3)cc2)c1=O
			weak	CCC(C)n1ncn(-c2ccc(N3CCN(c4ccc(OCC5COC(Cn6cncn6)(c6ccc(Cl)cc6Cl)O5)cc4)CC3)cc2)c1=O (stereo not shown)
